Values of other authors in publication PMC8679591, “FAPI-74 PET/CT Using Either ^18F-AlF or Cold-Kit ^68Ga Labeling: Biodistribution, Radiation Dosimetry, and Tumor Delineation in Lung Cancer Patients” (Journal of Nuclear Medicine, 2021).

| Structure (SMILES) | Effective dose |
| --- | --- |
| N[C@@H](C[C@H](CCC[18F])C(=O)O)C(=O)O [(S)-4-(3-^18F-fluoropropyl)-L-glutamic acid] | 0.032 mSv/MBq |
| N[C@@H](Cc1ccc(OCC[18F])cc1)C(=O)O [O-(2-^18F-fluoroethyl)-L-tyrosine] | 0.016 mSv/MBq |
| Cc1cn([C@H]2C[C@H]([18F])[C@@H](CO)O2)c(=O)[nH]c1=O [^18F-3′-deoxy-3′-^18F-fluorothymidine, 3′-deoxy-3′-^18F-fluorothymidine] | 0.028 mSv/MBq |
| O=C(O)CC[C@H](NC(=O)N[C@@H](CCCCNC(=O)[C@H](Cc1ccc2ccccc2c1)NC(=O)c1ccc(CNC(=O)[C@H](CCC(=O)O)NC(=O)[C@H](CCC(=O)O)NC(=O)c2ccc([18F])nc2)cc1)C(=O)O)C(=O)O [^18F-PSMA-1007] | 0.022 mSv/MBq |
| C[N+](C)(CF)CCO [^18F-fluorocholine] | 0.031 mSv/MBq |
| O=[N+]([O-])c1nccn1CC(O)C[18F] (centres unmarked) [^18F-fluoromisonidazole] | 0.013 mSv/MBq |
| CNc1ccc(/C=C/c2ccc(OCCOCCOCC[18F])cc2)cc1 [^18F-flurbetaben] | 0.015 mSv/MBq |
| CC(C)(C)n1ncc(OCc2ccc(COCC[18F])cc2)c(Cl)c1=O [^18F-flurpiridaz] | 0.019 mSv/MBq |
| N#C[C@@H]1CCCN1C(=O)CNC(=O)c1ccnc2ccc(OCCCN3CCN(C(=O)CN4CCN(CC(=O)O)CCN(CC(=O)O)CCN(CC(=O)O)CC4)CC3)cc12 [^68Ga-FAPI-2, metal not drawn] | 0.008–0.015 mSv/MBq |
| N#C[C@@H]1CC(F)(F)CN1C(=O)CNC(=O)c1ccnc2ccc(OCCCN3CCN(C(=O)CN4CCN(CC(=O)O)CCN(CC(=O)O)CCN(CC(=O)O)CC4)CC3)cc12 [^68Ga-FAPI-4, metal not drawn] | 0.008–0.015 mSv/MBq |
| O=C([O-])CN(CCN(CC(=O)[O-])Cc1cc(CCC(=O)NCCCCCC(=O)NCCCC[C@H](NC(=O)N[C@@H](CCC(=O)O)C(=O)O)C(=O)O)ccc1[O-])Cc1cc(CCC(=O)O)ccc1[O-].[68Ga+3].[OH3+] [^68Ga-PSMA-11] | 0.023 mSv/MBq |
